Measured values published in PubChem BioAssay (NCI).
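Test compounds were applied to cells in 96-well plates for 48 hours at 5 doses. GI50: concentration for 50% inhibition of growth. Definition used: TGI = concentration required for complete inhibition of growth.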

Key:
Experiment in all cases: NCI-60 cell line screen, 48 h
786-0 renal = test system: 786-0 renal
A498 renal = test system: A498 renal
A549 NSCLC = test system: A549 NSCLC
ACHN renal = test system: ACHN renal
BT-549 breast = test system: BT-549 breast
CAKI-1 renal = test system: CAKI-1 renal
CCRF-CEM leukemia = test system: CCRF-CEM leukemia
COLO 205 colon = test system: COLO 205 colon
DU-145 prostate = test system: DU-145 prostate
EKVX NSCLC = test system: EKVX NSCLC
HCC-2998 colon = test system: HCC-2998 colon
HCT-116 colon = test system: HCT-116 colon
HCT-15 colon = test system: HCT-15 colon
HL-60(TB) leukemia = test system: HL-60(TB) leukemia
HOP-62 NSCLC = test system: HOP-62 NSCLC
HOP-92 NSCLC = test system: HOP-92 NSCLC
HS 578T breast = test system: HS 578T breast
HT29 colon = test system: HT29 colon
IGROV1 ovarian = test system: IGROV1 ovarian
K-562 leukemia = test system: K-562 leukemia
KM12 colon = test system: KM12 colon
LOX IMVI melanoma = test system: LOX IMVI melanoma
M14 melanoma = test system: M14 melanoma
MALME-3M melanoma = test system: MALME-3M melanoma
MCF7 breast = test system: MCF7 breast
MDA-MB-231 breast = test system: MDA-MB-231 breast
MDA-MB-435 = test system: MDA-MB-435
MOLT-4 leukemia = test system: MOLT-4 leukemia
NCI-H226 lung = test system: NCI-H226 lung
NCI-H23 lung = test system: NCI-H23 lung
NCI-H460 lung = test system: NCI-H460 lung
NCI-H522 lung = test system: NCI-H522 lung
NCI/ADR-RES ovarian = test system: NCI/ADR-RES ovarian
OVCAR-3 ovarian = test system: OVCAR-3 ovarian
OVCAR-4 ovarian = test system: OVCAR-4 ovarian
OVCAR-5 ovarian = test system: OVCAR-5 ovarian
OVCAR-8 ovarian = test system: OVCAR-8 ovarian
PC-3 prostate = test system: PC-3 prostate
RPMI-8226 leukemia = test system: RPMI-8226 leukemia
RXF 393 renal = test system: RXF 393 renal
SF-268 CNS = test system: SF-268 CNS
SF-295 CNS = test system: SF-295 CNS
SF-539 CNS = test system: SF-539 CNS
SK-MEL-2 melanoma = test system: SK-MEL-2 melanoma
SK-MEL-28 melanoma = test system: SK-MEL-28 melanoma
SK-MEL-5 melanoma = test system: SK-MEL-5 melanoma
SK-OV-3 ovarian = test system: SK-OV-3 ovarian
SN12C renal = test system: SN12C renal
SNB-19 CNS = test system: SNB-19 CNS
SNB-75 CNS = test system: SNB-75 CNS
SR leukemia = test system: SR leukemia
SW-620 colon = test system: SW-620 colon
T-47D breast = test system: T-47D breast
TK-10 renal = test system: TK-10 renal
U251 CNS = test system: U251 CNS
UACC-257 melanoma = test system: UACC-257 melanoma
UACC-62 melanoma = test system: UACC-62 melanoma
UO-31 renal = test system: UO-31 renal
MDA-N = test system: MDA-N

`COc1cc(C(=O)/C=C/c2c(C(F)(F)F)nc3ccccn23)cc(OC)c1OC` was tested, and the GI50 (786-0 renal) was 1.72 µM, the TGI (786-0 renal) was 3.42 µM and the GI50 (A498 renal) was 2.4 µM. The TGI (A498 renal) was 5.77 µM, the GI50 (A549 NSCLC) was 4.04 µM and the TGI (A549 NSCLC) was > 100 µM. For the same compound, the GI50 (ACHN renal) was 1.95 µM, the TGI (ACHN renal) was 3.79 µM and the GI50 (BT-549 breast) was 1.64 µM. It also gave a TGI (BT-549 breast) of 3.95 µM, a GI50 (CAKI-1 renal) of 1.82 µM and a TGI (CAKI-1 renal) of 4.44 µM. For the same compound, the GI50 (CCRF-CEM leukemia) was 4.15 µM, the TGI (CCRF-CEM leukemia) was > 100 µM and the GI50 (COLO 205 colon) was 2.11 µM. For the same compound, the TGI (COLO 205 colon) was 4.36 µM, the GI50 (DU-145 prostate) was 1.61 µM and the TGI (DU-145 prostate) was 3.51 µM. For the same compound, the GI50 (EKVX NSCLC) was 2.37 µM, the TGI (EKVX NSCLC) was 6.78 µM and the GI50 (HCC-2998 colon) was 1.83 µM. For the same compound, the TGI (HCC-2998 colon) was 3.38 µM, the GI50 (HCT-116 colon) was 1.26 µM and the TGI (HCT-116 colon) was 3.21 µM. It also gave a GI50 (HCT-15 colon) of 2.1 µM, a TGI (HCT-15 colon) of 7.57 µM and a GI50 (HL-60(TB) leukemia) of 4.12 µM. For the same compound, the TGI (HL-60(TB) leukemia) was > 100 µM, the GI50 (HOP-62 NSCLC) was 2.97 µM and the TGI (HOP-62 NSCLC) was 8.53 µM. The GI50 (HOP-92 NSCLC) was 2.65 µM, the TGI (HOP-92 NSCLC) was 9.94 µM and the GI50 (HS 578T breast) was 3.27 µM. The TGI (HS 578T breast) was 54.6 µM, the GI50 (HT29 colon) was 1.93 µM and the TGI (HT29 colon) was 4.45 µM. It also gave a GI50 (IGROV1 ovarian) of 2.23 µM, a TGI (IGROV1 ovarian) of 6.02 µM and a GI50 (K-562 leukemia) of 2.83 µM. For the same compound, the TGI (K-562 leukemia) was > 100 µM, the GI50 (KM12 colon) was 1.73 µM and the TGI (KM12 colon) was 3.64 µM. For the same compound, the GI50 (LOX IMVI melanoma) was 1.66 µM, the TGI (LOX IMVI melanoma) was 3.77 µM and the GI50 (M14 melanoma) was 1.82 µM. It also gave a TGI (M14 melanoma) of 4.06 µM, a GI50 (MALME-3M melanoma) of 1.57 µM and a TGI (MALME-3M melanoma) of 3.35 µM. For the same compound, the GI50 (MCF7 breast) was 1.44 µM, the TGI (MCF7 breast) was 6.41 µM and the GI50 (MDA-MB-231 breast) was 4.59 µM. It also gave a TGI (MDA-MB-231 breast) of 19.3 µM, a GI50 (MDA-MB-435) of 2.26 µM and a TGI (MDA-MB-435) of 8.76 µM. For the same compound, the GI50 (MOLT-4 leukemia) was 3.73 µM, the TGI (MOLT-4 leukemia) was > 100 µM and the GI50 (NCI-H226 lung) was 3.55 µM. It also gave a TGI (NCI-H226 lung) of 21.7 µM, a GI50 (NCI-H23 lung) of 1.51 µM and a TGI (NCI-H23 lung) of 4.01 µM. It also gave a GI50 (NCI-H460 lung) of 2.01 µM, a TGI (NCI-H460 lung) of 13.4 µM and a GI50 (NCI-H522 lung) of 1.77 µM. For the same compound, the TGI (NCI-H522 lung) was 3.91 µM, the GI50 (NCI/ADR-RES ovarian) was 1.41 µM and the TGI (NCI/ADR-RES ovarian) was 21.8 µM. The GI50 (OVCAR-3 ovarian) was 1.83 µM, the TGI (OVCAR-3 ovarian) was 3.61 µM and the GI50 (OVCAR-4 ovarian) was 4.1 µM. For the same compound, the TGI (OVCAR-4 ovarian) was > 100 µM, the GI50 (OVCAR-5 ovarian) was 1.98 µM and the TGI (OVCAR-5 ovarian) was 4.02 µM. For the same compound, the GI50 (OVCAR-8 ovarian) was 3.39 µM, the TGI (OVCAR-8 ovarian) was > 100 µM and the GI50 (PC-3 prostate) was 3.8 µM. The TGI (PC-3 prostate) was 32.8 µM, the GI50 (RPMI-8226 leukemia) was 2.91 µM and the TGI (RPMI-8226 leukemia) was > 100 µM. The GI50 (RXF 393 renal) was 1.87 µM, the TGI (RXF 393 renal) was 3.91 µM and the GI50 (SF-268 CNS) was 1.64 µM. For the same compound, the TGI (SF-268 CNS) was 3.52 µM, the GI50 (SF-295 CNS) was 1.99 µM and the TGI (SF-295 CNS) was 3.92 µM. The GI50 (SF-539 CNS) was 1.63 µM, the TGI (SF-539 CNS) was 3.22 µM and the GI50 (SK-MEL-2 melanoma) was 2.43 µM. It also gave a TGI (SK-MEL-2 melanoma) of 6.07 µM, a GI50 (SK-MEL-28 melanoma) of 1.93 µM and a TGI (SK-MEL-28 melanoma) of 3.74 µM. The GI50 (SK-MEL-5 melanoma) was 1.62 µM, the TGI (SK-MEL-5 melanoma) was 3.23 µM and the GI50 (SK-OV-3 ovarian) was 4.04 µM. The TGI (SK-OV-3 ovarian) was 19 µM, the GI50 (SN12C renal) was 2.09 µM and the TGI (SN12C renal) was 6.49 µM. It also gave a GI50 (SNB-19 CNS) of 1.93 µM, a TGI (SNB-19 CNS) of 3.85 µM and a GI50 (SNB-75 CNS) of 1.76 µM. The TGI (SNB-75 CNS) was 3.44 µM, the GI50 (SR leukemia) was 1.98 µM and the TGI (SR leukemia) was > 100 µM. The GI50 (SW-620 colon) was 1.68 µM, the TGI (SW-620 colon) was 4.24 µM and the GI50 (T-47D breast) was 3.52 µM. The TGI (T-47D breast) was 15 µM, the GI50 (TK-10 renal) was 2.09 µM and the TGI (TK-10 renal) was 4.33 µM. It also gave a GI50 (U251 CNS) of 1.29 µM, a TGI (U251 CNS) of 3.31 µM and a GI50 (UACC-257 melanoma) of 2.05 µM. The TGI (UACC-257 melanoma) was 5.08 µM, the GI50 (UACC-62 melanoma) was 1.66 µM and the TGI (UACC-62 melanoma) was 3.32 µM. The GI50 (UO-31 renal) was 1.49 µM and the TGI (UO-31 renal) was 3.11 µM.

For `O=[N+]([O-])/C=C/c1cn(CCCCCCCCCCCCn2cc(/C=C/[N+](=O)[O-])c3ccccc32)c2ccccc12`, the TGI (786-0 renal) was > 100 µM, the TGI (A498 renal) was > 100 µM and the TGI (A549 NSCLC) was > 100 µM. For the same compound, the TGI (ACHN renal) was > 100 µM, the TGI (BT-549 breast) was > 100 µM and the TGI (CAKI-1 renal) was > 100 µM. For the same compound, the TGI (CCRF-CEM leukemia) was > 100 µM, the TGI (COLO 205 colon) was > 100 µM and the TGI (DU-145 prostate) was > 100 µM. The TGI (EKVX NSCLC) was > 100 µM, the TGI (HCC-2998 colon) was > 100 µM and the TGI (HCT-116 colon) was > 100 µM. For the same compound, the TGI (HCT-15 colon) was > 100 µM, the TGI (HL-60(TB) leukemia) was > 100 µM and the TGI (HOP-62 NSCLC) was > 100 µM. The TGI (HOP-92 NSCLC) was > 100 µM, the TGI (HS 578T breast) was > 100 µM and the TGI (HT29 colon) was > 100 µM. For the same compound, the TGI (IGROV1 ovarian) was > 100 µM, the TGI (KM12 colon) was > 100 µM and the TGI (LOX IMVI melanoma) was > 100 µM. For the same compound, the TGI (M14 melanoma) was > 100 µM, the TGI (MALME-3M melanoma) was > 100 µM and the TGI (MCF7 breast) was > 100 µM. For the same compound, the TGI (MDA-MB-231 breast) was > 100 µM, the TGI (MDA-MB-435) was > 100 µM and the TGI (MDA-N) was > 100 µM. The TGI (MOLT-4 leukemia) was > 100 µM, the TGI (NCI-H226 lung) was > 100 µM and the TGI (NCI-H23 lung) was > 100 µM. The TGI (NCI-H460 lung) was > 100 µM, the TGI (NCI-H522 lung) was > 100 µM and the TGI (NCI/ADR-RES ovarian) was > 100 µM. The TGI (OVCAR-3 ovarian) was > 100 µM, the TGI (OVCAR-4 ovarian) was > 100 µM and the TGI (OVCAR-5 ovarian) was > 100 µM. For the same compound, the TGI (OVCAR-8 ovarian) was > 100 µM, the TGI (PC-3 prostate) was > 100 µM and the TGI (RPMI-8226 leukemia) was > 100 µM. The TGI (SF-539 CNS) was > 100 µM, the TGI (SK-MEL-2 melanoma) was > 100 µM and the TGI (SK-MEL-28 melanoma) was > 100 µM. The TGI (SK-MEL-5 melanoma) was > 100 µM, the TGI (SK-OV-3 ovarian) was > 100 µM and the TGI (SN12C renal) was > 100 µM. The TGI (SR leukemia) was > 100 µM, the TGI (SW-620 colon) was > 100 µM and the TGI (TK-10 renal) was > 100 µM. The TGI (U251 CNS) was > 100 µM, the TGI (UACC-257 melanoma) was > 100 µM and the TGI (UACC-62 melanoma) was > 100 µM. The TGI (UO-31 renal) was > 100 µM.
